Results taken from publication PMC6934184, “Selective DNA-PKcs inhibition extends the therapeutic index of localized radiotherapy and chemotherapy” (The Journal of Clinical Investigation, 2019).

Molecular target: T1, PHKG1 (Homo sapiens, UniProt Q16816)
T1 construct: purchased Thermo Fisher Scientific (Life Technologies) SelectScreen
Experiment: SelectScreen Z'LYTE
Type: biochemical
Procedure, shortened: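 NU5455 was profiled across the SelectScreen Broad panel of kinase activity and binding assays. Z'LYTE reactions such as CSF1R ran at apparent Km ATP, while the Adapta CAMK1 assay used ATP listed as 10. Values are given as percent.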

T1 sequence (Q16816 whole entry): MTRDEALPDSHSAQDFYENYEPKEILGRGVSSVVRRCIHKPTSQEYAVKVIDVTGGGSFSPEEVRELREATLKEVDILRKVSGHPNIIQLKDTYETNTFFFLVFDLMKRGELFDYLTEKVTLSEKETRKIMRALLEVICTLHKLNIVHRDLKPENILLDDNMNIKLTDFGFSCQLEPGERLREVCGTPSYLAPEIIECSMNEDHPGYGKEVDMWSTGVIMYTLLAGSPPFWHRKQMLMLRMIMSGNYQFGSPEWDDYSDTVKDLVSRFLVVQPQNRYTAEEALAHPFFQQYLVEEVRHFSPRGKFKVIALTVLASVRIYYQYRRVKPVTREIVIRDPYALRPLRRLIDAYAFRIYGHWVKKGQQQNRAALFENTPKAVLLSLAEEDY

Compound: CN(C(=O)CN1CCOCC1)c1ccc2sc3c(-c4cccc5c(=O)cc(N6CC7CCC(C6)O7)oc45)cccc3c2c1 [NU5455]
- inhibition at 1 µM: -5%
